Test results: article PMC8909834, “An Orally Bioavailable and Highly Efficacious Inhibitor of CDK9/FLT3 for the Treatment of Acute Myeloid Leukemia” (Cancers, 2022)

How the values were obtained:
Assay in all cases: Kinase Hotspot radiolabel assay
Assay type in all cases: biochemical
Details in all cases: read-out: % Residual Activity
[1] = target: T1, CDK2/cyclin O (Homo sapiens, UniProt P24941)
T1 construct: purchased Reaction Biology Corporation (Kinase HotSpot)
How it was run: (§1)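 Step one: screen at 1 µM across 369 kinases (Hotspot, radiolabel detection). Step two: Ki determination for kinases with >90% inhibition.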

[2] = target: T2, MAK (Homo sapiens, UniProt P20794)
T2 construct: purchased Reaction Biology Corporation (Kinase HotSpot)
How it was run: as §1

[3] = target: T3, ZIPK/DAPK3 (Homo sapiens, UniProt O43293)
T3 construct: purchased Reaction Biology Corporation (Kinase HotSpot)
How it was run: as §1

[4] = target: T4, ABL1 (Homo sapiens, UniProt P00519)
T4 construct: purchased Reaction Biology Corporation (Kinase HotSpot)
How it was run: as §1

[5] = target: T5, BRSK1 (Homo sapiens, UniProt Q8TDC3)
T5 construct: purchased Reaction Biology Corporation (Kinase HotSpot)
How it was run: as §1

[6] = target: T6, DLK/MAP3K12 (Homo sapiens, UniProt Q12852)
T6 construct: purchased Reaction Biology Corporation (Kinase HotSpot)
How it was run: as §1

[7] = target: T7, TGFBR2 (Homo sapiens, UniProt P37173)
T7 construct: purchased Reaction Biology Corporation (Kinase HotSpot)
How it was run: as §1

[8] = target: T8, ERK7/MAPK15 (Homo sapiens, UniProt Q8TD08)
T8 construct: purchased Reaction Biology Corporation (Kinase HotSpot)
How it was run: as §1

[9] = target: T9, IR (Homo sapiens, UniProt P06213)
T9 construct: purchased Reaction Biology Corporation (Kinase HotSpot)
How it was run: as §1

[10] = target: T10, CDK1/cyclin A (Homo sapiens, UniProt P06493)
T10 construct: purchased Reaction Biology Corporation (Kinase HotSpot)
How it was run: as §1

[11] = target: T11, MKK4 (Homo sapiens, UniProt P45985)
T11 construct: purchased Reaction Biology Corporation (Kinase HotSpot)
How it was run: as §1

[12] = target: T12, KSR1 (Homo sapiens, UniProt Q8IVT5)
T12 construct: purchased Reaction Biology Corporation (Kinase HotSpot)
How it was run: as §1

[13] = target: T13, CDK2/cyclin A (Homo sapiens, UniProt P24941)
T13 construct: purchased Reaction Biology Corporation (Kinase HotSpot)
How it was run: as §1

[14] = target: T14, MUSK (Homo sapiens, UniProt O15146)
T14 construct: purchased Reaction Biology Corporation (Kinase HotSpot)
How it was run: as §1

[15] = target: T15, P38b/MAPK11 (Homo sapiens, UniProt Q15759)
T15 construct: purchased Reaction Biology Corporation (Kinase HotSpot)
How it was run: as §1

[16] = target: T16, YES/YES1 (Homo sapiens, UniProt P07947)
T16 construct: purchased Reaction Biology Corporation (Kinase HotSpot)
How it was run: as §1

[17] = target: T17, CAMK1d (Homo sapiens, UniProt Q8IU85)
T17 construct: purchased Reaction Biology Corporation (Kinase HotSpot)
How it was run: as §1

[18] = target: T18, PKCiota (Homo sapiens, UniProt P41743)
T18 construct: purchased Reaction Biology Corporation (Kinase HotSpot)
How it was run: as §1

[19] = target: T19, RSK4 (Homo sapiens, UniProt Q9UK32)
T19 construct: purchased Reaction Biology Corporation (Kinase HotSpot)
How it was run: as §1

[20] = target: T20, PEAK1 (Homo sapiens, UniProt Q9H792)
T20 construct: purchased Reaction Biology Corporation (Kinase HotSpot)
How it was run: as §1

[21] = target: T21, LOK/STK10 (Homo sapiens, UniProt O94804)
T21 construct: purchased Reaction Biology Corporation (Kinase HotSpot)
How it was run: as §1

[22] = target: T22, AKT3 (Homo sapiens, UniProt Q9Y243)
T22 construct: purchased Reaction Biology Corporation (Kinase HotSpot)
How it was run: as §1

[23] = target: T23, FES/FPS (Homo sapiens, UniProt P07332)
T23 construct: purchased Reaction Biology Corporation (Kinase HotSpot)
How it was run: as §1

[24] = target: T24, CDK5/p35 (Homo sapiens, UniProt Q00535)
T24 construct: purchased Reaction Biology Corporation (Kinase HotSpot)
How it was run: as §1

[25] = target: T25, GLK/MAP4K3 (Homo sapiens, UniProt Q8IVH8)
T25 construct: purchased Reaction Biology Corporation (Kinase HotSpot)
How it was run: as §1

[26] = target: T26, LCK (Homo sapiens, UniProt P06239)
T26 construct: purchased Reaction Biology Corporation (Kinase HotSpot)
How it was run: as §1

[27] = target: T27, PKCd (Homo sapiens, UniProt Q05655)
T27 construct: purchased Reaction Biology Corporation (Kinase HotSpot)
How it was run: as §1

[28] = target: T28, IKKe/IKBKE (Homo sapiens, UniProt Q14164)
T28 construct: purchased Reaction Biology Corporation (Kinase HotSpot)
How it was run: as §1

[29] = target: T29, HIPK3 (Homo sapiens, UniProt Q9H422)
T29 construct: purchased Reaction Biology Corporation (Kinase HotSpot)
How it was run: as §1

[30] = target: T30, PLK2 (Homo sapiens, UniProt Q9NYY3)
T30 construct: purchased Reaction Biology Corporation (Kinase HotSpot)
How it was run: as §1

T16 sequence (P07947 whole entry): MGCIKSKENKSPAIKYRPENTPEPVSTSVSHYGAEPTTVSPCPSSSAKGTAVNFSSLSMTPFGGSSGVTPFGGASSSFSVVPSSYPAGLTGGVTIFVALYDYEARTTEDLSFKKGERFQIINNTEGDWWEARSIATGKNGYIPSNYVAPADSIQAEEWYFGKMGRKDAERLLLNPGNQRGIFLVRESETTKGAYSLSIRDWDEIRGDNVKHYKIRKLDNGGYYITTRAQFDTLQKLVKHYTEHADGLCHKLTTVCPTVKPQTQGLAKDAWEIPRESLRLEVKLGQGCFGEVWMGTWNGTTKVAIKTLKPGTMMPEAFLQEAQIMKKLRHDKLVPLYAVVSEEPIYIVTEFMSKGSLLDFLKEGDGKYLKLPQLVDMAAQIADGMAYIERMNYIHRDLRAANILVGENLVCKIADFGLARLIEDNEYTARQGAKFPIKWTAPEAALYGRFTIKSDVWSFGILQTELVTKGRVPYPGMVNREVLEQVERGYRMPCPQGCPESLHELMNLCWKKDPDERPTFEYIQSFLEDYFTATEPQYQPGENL
T12 sequence (Q8IVT5 whole entry): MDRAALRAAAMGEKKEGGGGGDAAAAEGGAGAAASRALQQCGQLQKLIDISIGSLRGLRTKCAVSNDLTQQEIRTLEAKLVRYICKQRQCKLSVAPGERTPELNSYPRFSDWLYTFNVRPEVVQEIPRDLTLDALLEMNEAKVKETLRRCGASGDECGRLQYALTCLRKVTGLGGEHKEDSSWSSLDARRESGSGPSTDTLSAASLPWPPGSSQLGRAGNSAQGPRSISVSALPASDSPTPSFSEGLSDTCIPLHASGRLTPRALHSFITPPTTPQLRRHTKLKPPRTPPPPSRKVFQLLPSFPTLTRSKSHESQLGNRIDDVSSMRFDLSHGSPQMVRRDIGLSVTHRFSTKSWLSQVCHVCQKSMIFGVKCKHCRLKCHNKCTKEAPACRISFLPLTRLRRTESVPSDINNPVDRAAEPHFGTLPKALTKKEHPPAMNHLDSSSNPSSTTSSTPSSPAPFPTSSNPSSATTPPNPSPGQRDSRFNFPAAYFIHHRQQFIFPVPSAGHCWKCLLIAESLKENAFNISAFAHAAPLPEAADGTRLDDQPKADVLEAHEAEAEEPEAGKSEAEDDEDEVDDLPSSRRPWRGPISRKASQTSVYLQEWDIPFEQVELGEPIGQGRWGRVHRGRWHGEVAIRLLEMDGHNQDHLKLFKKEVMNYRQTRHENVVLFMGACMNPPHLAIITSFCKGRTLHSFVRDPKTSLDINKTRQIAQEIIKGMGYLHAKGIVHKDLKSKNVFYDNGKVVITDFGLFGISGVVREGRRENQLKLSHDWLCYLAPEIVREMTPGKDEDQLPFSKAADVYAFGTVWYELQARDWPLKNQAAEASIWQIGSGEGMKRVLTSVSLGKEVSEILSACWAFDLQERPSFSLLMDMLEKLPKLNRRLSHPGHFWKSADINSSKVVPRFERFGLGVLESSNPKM
T9 sequence (P06213 28-1382): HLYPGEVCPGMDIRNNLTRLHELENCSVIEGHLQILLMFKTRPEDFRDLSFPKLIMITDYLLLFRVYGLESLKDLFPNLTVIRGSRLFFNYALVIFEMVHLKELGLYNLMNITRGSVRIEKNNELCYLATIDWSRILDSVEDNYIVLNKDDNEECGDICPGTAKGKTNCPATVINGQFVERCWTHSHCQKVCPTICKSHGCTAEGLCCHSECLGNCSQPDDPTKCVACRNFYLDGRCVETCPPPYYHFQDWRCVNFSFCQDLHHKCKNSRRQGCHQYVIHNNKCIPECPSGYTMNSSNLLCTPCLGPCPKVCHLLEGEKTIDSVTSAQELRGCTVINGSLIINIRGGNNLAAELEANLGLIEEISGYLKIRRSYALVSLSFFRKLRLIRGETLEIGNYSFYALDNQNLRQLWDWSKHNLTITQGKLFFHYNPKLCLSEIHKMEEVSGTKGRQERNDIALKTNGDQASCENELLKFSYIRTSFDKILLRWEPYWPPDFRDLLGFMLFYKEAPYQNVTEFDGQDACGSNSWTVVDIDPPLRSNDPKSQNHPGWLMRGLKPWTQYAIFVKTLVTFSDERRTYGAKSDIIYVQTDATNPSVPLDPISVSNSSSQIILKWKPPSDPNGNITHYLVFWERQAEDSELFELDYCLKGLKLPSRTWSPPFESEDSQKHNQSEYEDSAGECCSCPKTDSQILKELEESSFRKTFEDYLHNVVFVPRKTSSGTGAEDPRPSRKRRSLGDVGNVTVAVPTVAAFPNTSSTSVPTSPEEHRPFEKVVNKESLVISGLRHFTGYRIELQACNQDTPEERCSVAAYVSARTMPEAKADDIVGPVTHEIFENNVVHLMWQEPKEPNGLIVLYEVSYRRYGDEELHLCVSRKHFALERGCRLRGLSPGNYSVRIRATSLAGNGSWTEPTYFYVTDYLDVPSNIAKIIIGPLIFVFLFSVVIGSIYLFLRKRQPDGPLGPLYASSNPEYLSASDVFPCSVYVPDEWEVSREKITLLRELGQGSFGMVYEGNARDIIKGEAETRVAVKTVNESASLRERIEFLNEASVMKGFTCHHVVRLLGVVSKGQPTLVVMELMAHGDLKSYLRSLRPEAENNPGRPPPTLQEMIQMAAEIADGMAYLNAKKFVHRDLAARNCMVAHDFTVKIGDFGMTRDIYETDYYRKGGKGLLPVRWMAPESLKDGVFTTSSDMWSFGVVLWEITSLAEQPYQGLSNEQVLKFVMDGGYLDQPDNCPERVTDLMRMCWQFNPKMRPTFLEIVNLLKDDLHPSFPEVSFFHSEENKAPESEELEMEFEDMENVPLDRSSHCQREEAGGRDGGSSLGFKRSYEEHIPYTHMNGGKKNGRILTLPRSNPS
T11 sequence (P45985 whole entry): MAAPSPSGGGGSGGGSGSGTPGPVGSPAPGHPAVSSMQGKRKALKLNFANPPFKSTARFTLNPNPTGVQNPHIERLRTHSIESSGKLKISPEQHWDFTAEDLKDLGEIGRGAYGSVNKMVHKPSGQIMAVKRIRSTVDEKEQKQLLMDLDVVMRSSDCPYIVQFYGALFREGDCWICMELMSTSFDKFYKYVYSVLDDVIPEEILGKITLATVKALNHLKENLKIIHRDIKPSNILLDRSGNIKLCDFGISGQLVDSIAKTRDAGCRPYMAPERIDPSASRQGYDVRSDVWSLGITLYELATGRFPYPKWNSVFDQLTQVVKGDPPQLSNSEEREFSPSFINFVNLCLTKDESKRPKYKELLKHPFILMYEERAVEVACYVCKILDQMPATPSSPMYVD
T2 sequence (P20794 whole entry): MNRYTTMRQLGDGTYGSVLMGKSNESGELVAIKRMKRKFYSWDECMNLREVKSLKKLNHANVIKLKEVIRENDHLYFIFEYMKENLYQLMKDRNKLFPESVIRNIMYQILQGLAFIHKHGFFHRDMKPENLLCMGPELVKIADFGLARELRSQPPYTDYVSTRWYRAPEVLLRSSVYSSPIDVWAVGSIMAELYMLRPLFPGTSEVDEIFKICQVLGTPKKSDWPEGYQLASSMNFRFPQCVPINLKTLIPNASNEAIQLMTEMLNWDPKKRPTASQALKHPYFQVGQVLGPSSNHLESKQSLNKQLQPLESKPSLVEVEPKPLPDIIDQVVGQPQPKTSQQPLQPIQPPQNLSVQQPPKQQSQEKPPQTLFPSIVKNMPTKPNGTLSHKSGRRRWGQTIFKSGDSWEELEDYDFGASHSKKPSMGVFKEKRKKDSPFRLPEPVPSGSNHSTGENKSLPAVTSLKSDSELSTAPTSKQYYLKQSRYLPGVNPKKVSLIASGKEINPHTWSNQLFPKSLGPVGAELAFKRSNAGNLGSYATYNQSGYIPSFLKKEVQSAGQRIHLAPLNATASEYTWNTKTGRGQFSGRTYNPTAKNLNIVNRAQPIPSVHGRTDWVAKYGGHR
T5 sequence (Q8TDC3 whole entry): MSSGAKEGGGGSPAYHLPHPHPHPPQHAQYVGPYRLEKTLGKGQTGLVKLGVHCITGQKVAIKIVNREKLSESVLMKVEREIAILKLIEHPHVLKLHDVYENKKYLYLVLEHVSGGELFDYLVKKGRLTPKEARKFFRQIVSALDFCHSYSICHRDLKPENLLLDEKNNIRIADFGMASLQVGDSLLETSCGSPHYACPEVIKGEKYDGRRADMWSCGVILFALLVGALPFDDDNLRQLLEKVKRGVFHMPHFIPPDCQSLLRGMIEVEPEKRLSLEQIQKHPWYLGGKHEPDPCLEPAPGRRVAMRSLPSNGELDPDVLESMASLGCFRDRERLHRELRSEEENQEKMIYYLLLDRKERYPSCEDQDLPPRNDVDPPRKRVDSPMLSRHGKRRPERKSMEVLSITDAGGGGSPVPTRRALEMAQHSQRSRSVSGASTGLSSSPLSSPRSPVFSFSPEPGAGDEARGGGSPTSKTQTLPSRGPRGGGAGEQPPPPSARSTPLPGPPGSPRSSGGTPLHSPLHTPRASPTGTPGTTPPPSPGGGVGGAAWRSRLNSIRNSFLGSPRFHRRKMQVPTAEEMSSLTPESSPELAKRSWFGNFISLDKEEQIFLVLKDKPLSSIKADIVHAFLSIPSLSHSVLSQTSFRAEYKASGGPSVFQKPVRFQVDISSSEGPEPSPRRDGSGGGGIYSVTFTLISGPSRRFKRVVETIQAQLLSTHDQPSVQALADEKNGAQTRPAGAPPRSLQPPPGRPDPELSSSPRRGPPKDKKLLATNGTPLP
T3 sequence (O43293 whole entry): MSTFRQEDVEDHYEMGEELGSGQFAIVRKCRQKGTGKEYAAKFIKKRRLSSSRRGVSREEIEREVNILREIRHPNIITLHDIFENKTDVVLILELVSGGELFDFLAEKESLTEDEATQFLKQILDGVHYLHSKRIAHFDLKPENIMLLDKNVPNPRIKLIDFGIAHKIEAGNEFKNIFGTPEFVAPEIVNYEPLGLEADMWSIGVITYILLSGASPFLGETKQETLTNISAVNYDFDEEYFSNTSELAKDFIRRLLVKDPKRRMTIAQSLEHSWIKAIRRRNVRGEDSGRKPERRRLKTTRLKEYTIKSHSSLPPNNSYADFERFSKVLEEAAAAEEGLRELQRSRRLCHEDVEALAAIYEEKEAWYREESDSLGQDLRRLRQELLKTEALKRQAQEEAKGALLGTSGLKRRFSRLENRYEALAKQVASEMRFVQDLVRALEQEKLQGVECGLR

For `Cc1cnc(N[C@H]2CC[C@H](N)CC2)nc1-c1cnc2ccc(-c3ccccc3)cn12` [CDDD11-8], the remaining activity at 1 µM [1] was 56.8%, the remaining activity at 1 µM [2] was 67.6% and the remaining activity at 1 µM [3] was 102%. The remaining activity at 1 µM [4] was 76.8%, the remaining activity at 1 µM [5] was 97.4% and the remaining activity at 1 µM [6] was 45.8%. For the same molecule, the remaining activity at 1 µM [7] was 95.6%, the remaining activity at 1 µM [8] was 66.4% and the remaining activity at 1 µM [9] was 101%. For the same molecule, the remaining activity at 1 µM [10] was 78%, the remaining activity at 1 µM [11] was 75.6% and the remaining activity at 1 µM [12] was 92.3%. For the same molecule, the remaining activity at 1 µM [13] was 55%, the remaining activity at 1 µM [14] was 72.7% and the remaining activity at 1 µM [15] was 98.4%. For the same molecule, the remaining activity at 1 µM [16] was 70%, the remaining activity at 1 µM [17] was 87.1% and the remaining activity at 1 µM [18] was 88.8%. For the same molecule, the remaining activity at 1 µM [19] was 43.4%, the remaining activity at 1 µM [20] was 57.3% and the remaining activity at 1 µM [21] was 55.8%. For the same molecule, the remaining activity at 1 µM [22] was 77.2%, the remaining activity at 1 µM [23] was 86.2% and the remaining activity at 1 µM [24] was 84.5%. It also gave a remaining activity at 1 µM [25] of 9.75%, a remaining activity at 1 µM [26] of 72.5% and a remaining activity at 1 µM [27] of 47.6%. It also gave a remaining activity at 1 µM [28] of 91.7%, a remaining activity at 1 µM [29] of 125% and a remaining activity at 1 µM [30] of 97.5%.
